From ChEMBL document CHEMBL1671830, “Discovery of PSI-353661, a Novel Purine Nucleotide Prodrug for the Treatment of HCV Infection” (ACS Med Chem Lett, 2011)

Assays:
[1] = Cytotoxicity against human […] cells after 96 hrs by MTS assay; type: cell-based
[2] = tested on: Hepatitis C virus; test: Antiviral activity against HCV infected in human HuH7 cells by cell-based replicon assay; type: functional, Hepacivirus hominis, Huh-7
[3] = Cytotoxicity against human HuH7 cells after 96 hrs by MTS assay; type: cell-based, Huh-7
[4] = Cytotoxicity against human CEM cells after 96 hrs by MTS assay; type: cell-based; conditions: CEM (CCRF-CEM) cells
[5] = Cytotoxicity against human HepG2 cells after 96 hrs by MTS assay; type: cell-based
[6] = tested on: Hepatitis C virus; test: Antiviral activity against HCV harboring NS5B polymerase S282T mutant infected in human HuH7 cells by cell-based replicon assay; type: functional, Hepacivirus hominis, Huh-7
[7] = tested on: Huh-7; test: Increase of cellular triphosphate level in human HuH7 cells at 100 uM after 48 hrs by HPLC analysis; type: functional
[8] = tested on: HepG2; test: Cytotoxicity against human HepG2 cells assessed as mitochondrial rDNA level up to 100 uM after 14 days by RT-PCR analysis; type: cell-based; conditions: hepg2, 336 h
[9] = tested on: CCRF-CEM; test: Cytotoxicity against human CEM cells assessed as mitochondrial COX2 DNA level up to 100 uM after 14 days by RT-PCR analysis; type: cell-based; conditions: 336 h
[10] = tested on: HepG2; test: Cytotoxicity against human HepG2 cells assessed as mitochondrial COX2 DNA level up to 100 uM after 14 days by RT-PCR analysis; type: cell-based; conditions: hepg2, 336 h
[11] = tested on: CCRF-CEM; test: Cytotoxicity against human CEM cells assessed as mitochondrial rDNA level up to 100 uM after 14 days by RT-PCR analysis; type: cell-based; conditions: 336 h
[12] = Half life in simulated intestinal fluid; type: ADME
[13] = Half life in simulated gastrointestinal fluid; type: ADME
[14] = Half life in human plasma; type: ADME, cell-free
[15] = tested on: Hepatocyte; test: Increase of cellular triphosphate level in human primary hepatocytes cells at 100 uM after 24 hrs by HPLC analysis; type: functional
[16] = Half life in human liver S9 fraction; type: ADME, subcellular
[17] = tested on: Hepatitis C virus; test: Antiviral activity against HCV by cell-based replicon assay; type: functional, Hepacivirus hominis
[18] = Inhibition of HCV NS5B polymerase; parameters: species or system Hepacivirus hominis

| Compound | EC90 ([2]; Hepatitis C virus, Huh-7) [µM] | CC50 at 96 h [1] [µM] | CC50 at 96 h [3] [µM] | CC50 at 96 h [4] [µM] | CC50 at 96 h [5] [µM] | further results |
| --- | --- | --- | --- | --- | --- | --- |
| CCOC(=O)[C@H](C)NP(=O)(OC[C@H]1O[C@@H](n2cnc3c(OC)nc(N)nc32)[C@](C)(F)[C@@H]1O)Oc1ccccc1 (some centres not stated) | 0.0074 | 65 | > 100 | 55 | 62 | EC90 ([6]; Hepatitis C virus, Huh-7): 0.011 µM |
| CCOC(=O)[C@H](C)NP(=O)(OC[C@H]1O[C@@H](n2cnc3c(OCC)nc(N)nc32)[C@](C)(F)[C@@H]1O)Oc1ccccc1 (some centres not stated) | 0.01 | 68 | 47 | 37 | 61 |  |
| CCCOc1nc(N)nc2c1ncn2[C@@H]1O[C@H](COP(=O)(N[C@@H](C)C(=O)OCC)Oc2ccccc2)[C@@H](O)[C@@]1(C)F (some centres not stated) | 0.013 |  |  |  |  |  |
| CCOC(=O)[C@H](C)NP(=O)(OC[C@H]1O[C@@H](n2cnc3c(OCCOC)nc(N)nc32)[C@](C)(F)[C@@H]1O)Oc1ccccc1 (some centres not stated) | 0.02 |  |  |  |  |  |
| CCOC(=O)[C@H](C)NP(=O)(OC[C@H]1O[C@@H](n2cnc3c(OCCF)nc(N)nc32)[C@](C)(F)[C@@H]1O)Oc1ccccc1 (some centres not stated) | 0.027 |  |  |  |  |  |
| CC(C)OC(=O)[C@H](C)NP(=O)(OC[C@H]1O[C@@H](n2cnc3c(O)nc(N)nc32)[C@](C)(F)[C@@H]1O)Oc1ccccc1 (some centres not stated) | 0.75 | > 100 | > 100 | > 100 | > 100 | EC90 ([6]; Hepatitis C virus, Huh-7): 0.61 µM |
| C[C@H](NP(=O)(OC[C@H]1O[C@@H](n2cnc3c(O)nc(N)nc32)[C@](C)(F)[C@@H]1O)Oc1ccccc1)C(=O)OC1CCCC1 (some centres not stated) | 0.18 | > 100 | > 100 | > 100 | > 100 | Activity [7]: 0.06 mM; Activity [8]: Non-toxic; EC90 ([6]; Hepatitis C virus, Huh-7): 0.12 µM; Activity [9]: Non-toxic; Activity [10]: Non-toxic; Activity [11]: Non-toxic; half-life [12]: > 20 h; half-life [13]: 15 h; half-life [14]: > 24 h; Activity [15]: 0.04 mM; half-life [16]: 0.2 h |
| CCOc1nc(N)nc2c1ncn2[C@@H]1O[C@H](COP(=O)(N[C@@H](C)C(=O)OC)Oc2ccccc2)[C@@H](O)[C@@]1(C)F (some centres not stated) | 0.016 | > 100 | > 100 | 74 | > 100 | EC90 ([6]; Hepatitis C virus, Huh-7): 0.016 µM |
| CCOc1nc(N)nc2c1ncn2[C@@H]1O[C@H](COP(=O)(N[C@@H](C)C(=O)OC(C)C)Oc2ccccc2)[C@@H](O)[C@@]1(C)F (some centres not stated) | 0.02 | > 100 | 59 | 93 | > 100 |  |
| CCCOc1nc(N)nc2c1ncn2[C@@H]1O[C@H](COP(=O)(N[C@@H](C)C(=O)OC(C)C)Oc2ccccc2)[C@@H](O)[C@@]1(C)F (some centres not stated) | 0.033 | > 100 | 49 | 44 | > 100 |  |
| COC(=O)[C@H](C)NP(=O)(OC[C@H]1O[C@@H](n2cnc3c(N4CCC4)nc(N)nc32)[C@](C)(F)[C@@H]1O)Oc1ccccc1 (some centres not stated) | 0.09 | > 100 | > 100 | 75 | > 100 | Activity [7]: 0.16 mM; Activity [8]: Non-toxic; EC90 ([6]; Hepatitis C virus, Huh-7): 0.04 µM; Activity [9]: Non-toxic; Activity [10]: Non-toxic; Activity [11]: Non-toxic; half-life [12]: > 20 h; half-life [13]: > 20 h; half-life [14]: 11.6 h; Activity [15]: 0.05 mM; half-life [16]: 0.4 h |
| CC(C)OC(=O)[C@H](C)NP(=O)(OC[C@H]1O[C@@H](n2cnc3c(N4CCC4)nc(N)nc32)[C@](C)(F)[C@@H]1O)Oc1ccccc1 (some centres not stated) | 0.019 | 74 | 53 | 74 | 100 |  |
| COc1nc(N)nc2c1ncn2[C@@H]1O[C@H](CO[P@](=O)(N[C@@H](C)C(=O)OC(C)C)Oc2ccccc2)[C@@H](O)[C@@]1(C)F | 0.027 |  |  |  |  | Activity [7]: 0.07 mM; EC90 ([6]; Hepatitis C virus, Huh-7): 0.038 µM; Activity [15]: 0.14 mM |
| C[C@@]1(F)[C@H](O)[C@@H](CO)O[C@H]1n1cnc2c(O)nc(N)nc21 |  |  |  |  |  | EC90 [17]: 69.2 µM |
| COc1nc(N)nc2c1ncn2[C@@H]1O[C@H](COP(=O)(N[C@@H](C)C(=O)OC(C)C)Oc2ccccc2)[C@@H](O)[C@@]1(C)F (stereo in doubt; 23) |  | > 100 | > 100 | > 100 | 62 | Activity [7]: 0.12 mM; Activity [8]: Non-toxic; EC90 [6]: 0.024 µM; Activity [9]: Non-toxic; EC90 [2]: 0.02 µM; Activity [10]: Non-toxic; Activity [11]: Non-toxic; half-life [12]: > 20 h; half-life [13]: 14 h; half-life [14]: > 24 h; Activity [15]: 0.12 mM; half-life [16]: 0.2 h |
| COc1nc(N)nc2c1ncn2[C@@H]1O[C@H](COP(=O)(N[C@@H](C)C(=O)OC(C)C)Oc2ccccc2)[C@@H](O)[C@@]1(C)F (stereo in doubt; 23b) |  |  |  |  |  | Activity [7]: 0.17 mM; EC90 [6]: 0.011 µM; EC90 [2]: 0.008 µM; Activity [15]: 0.44 mM |
| C[C@@]1(F)[C@H](O)[C@@H](COP(=O)(O)OP(=O)(O)OP(=O)(O)O)O[C@H]1n1cnc2c(=O)[nH]c(N)nc21 [PSI-352666] |  |  |  |  |  | IC50 [18]: 5.94 µM |

More lines, main results first:

| EC90 ([2]; Hepatitis C virus, Huh-7) [µM] | Compound | CC50 at 96 h [1] [µM] | CC50 at 96 h [3] [µM] | CC50 at 96 h [4] [µM] | CC50 at 96 h [5] [µM] | further results |
| --- | --- | --- | --- | --- | --- | --- |
| 2.38 | CCOC(=O)[C@H](C)NP(=O)(OC[C@H]1O[C@@H](n2cnc3c(O)nc(N)nc32)[C@](C)(F)[C@@H]1O)Oc1ccccc1 (some centres not stated) | > 100 | > 100 | > 100 | > 100 |  |
| 0.047 | CCOC(=O)[C@H](C)NP(=O)(OC[C@H]1O[C@@H](n2cnc3c(SCC)nc(N)nc32)[C@](C)(F)[C@@H]1O)Oc1ccccc1 (some centres not stated) |  |  |  |  |  |
| 0.007 | CCOC(=O)[C@H](C)NP(=O)(OC[C@H]1O[C@@H](n2cnc3c(N4CCC4)nc(N)nc32)[C@](C)(F)[C@@H]1O)Oc1ccccc1 (some centres not stated) | 84 | 84 | 39 | 75 |  |
| 0.0098 | CCOC(=O)[C@H](C)NP(=O)(OC[C@H]1O[C@@H](n2cnc3c(NC4CC4)nc(N)nc32)[C@](C)(F)[C@@H]1O)Oc1ccccc1 (some centres not stated) | > 100 | > 100 | 45 | > 100 |  |
| 0.024 | CCOC(=O)[C@H](C)NP(=O)(OC[C@H]1O[C@@H](n2cnc3c(NC4CCC4)nc(N)nc32)[C@](C)(F)[C@@H]1O)Oc1ccccc1 (some centres not stated) |  |  |  |  |  |
| 0.026 | CCOC(=O)[C@H](C)NP(=O)(OC[C@H]1O[C@@H](n2cnc3c(NC4CCCC4)nc(N)nc32)[C@](C)(F)[C@@H]1O)Oc1ccccc1 (some centres not stated) |  |  |  |  |  |
| 0.446 | C[C@H](NP(=O)(OC[C@H]1O[C@@H](n2cnc3c(O)nc(N)nc32)[C@](C)(F)[C@@H]1O)Oc1ccccc1)C(=O)OC1CCCCC1 (some centres not stated) | > 100 | > 100 | > 100 | > 100 |  |
| 0.0081 | COC(=O)[C@H](C)NP(=O)(OC[C@H]1O[C@@H](n2cnc3c(OC)nc(N)nc32)[C@](C)(F)[C@@H]1O)Oc1ccccc1 (some centres not stated) | > 100 | > 100 | 20 | 71 |  |
| 0.0146 | CCCOc1nc(N)nc2c1ncn2[C@@H]1O[C@H](COP(=O)(N[C@@H](C)C(=O)OC)Oc2ccccc2)[C@@H](O)[C@@]1(C)F (some centres not stated) | 39 | 39 | 17 | 45 |  |
| 0.0082 | COC(=O)[C@H](C)NP(=O)(OC[C@H]1O[C@@H](n2cnc3c(NC4CC4)nc(N)nc32)[C@](C)(F)[C@@H]1O)Oc1ccccc1 (some centres not stated) | > 100 | > 100 | 34 | > 100 |  |
| 0.0088 | CC(C)OC(=O)[C@H](C)NP(=O)(OC[C@H]1O[C@@H](n2cnc3c(NC4CC4)nc(N)nc32)[C@](C)(F)[C@@H]1O)Oc1ccccc1 (some centres not stated) | 98 | 96 | > 100 | > 100 |  |
